Test: Inhibition of FTase

Row | IC50 | SMILES
1 | 1.1 nM | Cn1cncc1C(OCc1ccc(C#N)cc1-c1ccc2c(c1)OC(F)(F)O2)c1ccc(C#N)cc1 (configuration not stated)
2 | 29 nM | Cc1ccccc1-c1cc(C(OCc2cccc(C(F)(F)F)c2)c2cncn2C)ccc1C#N (configuration not stated)
3 | 96 nM | CS(=O)(=O)Cn1cncc1COCc1ccc(C#N)cc1-c1cccc(Cl)c1
4 | 0.15 nM | N#Cc1ccc(Cn2cncc2Cn2ccc3cc(-c4cccc5ccccc45)c(C#N)cc32)cc1
5 | 0.96 nM | N#Cc1ccc(COCc2cncn2Cc2ccc(C#N)cc2-c2cccc3ccccc23)cc1
6 | 0.014 nM | CCOc1cccc(-c2cc(C#N)ccc2CNCc2cncn2Cc2ccc(C#N)cc2)c1
7 | 160 nM | Cn1cncc1C(OCc1ccc(C#N)cc1)c1ccc(C#N)c(-c2cc3ccccc3s2)c1 (configuration not stated)
8 | 61 nM | Cc1ccc(CNC(=O)C2CN(C3c4ccc(Cl)cc4CCc4cc(Br)cnc43)CCN2C(=O)NC2CCCCC2)cn1 (configuration not stated)
9 | 40 nM | COc1cccc(-c2cc(N)ccc2COC(c2ccc(C#N)cc2)c2cncn2C)c1 (configuration not stated)
10 | 0.88 nM | Cn1cncc1C(OCc1ccc(C#N)cc1NS(=O)(=O)c1cccs1)c1ccc(C#N)cc1 (configuration not stated)
11 | 0.27 nM | CCOc1cccc(-c2cc(C#N)ccc2COCc2cncn2Cc2ccc(C#N)cc2)c1
12 | 51 nM | C[n+]1cccc(NC(=O)C2CN(C3c4ccc(Cl)cc4CCc4cc(Br)cnc43)CCN2C(=O)NC2CC2)c1 (configuration not stated)
13 | 0.5 nM | CCOc1cccc(-n2c(=O)n(C)c3ccc(C(O)(c4ccc(C#N)cc4)c4cncn4C)cc32)c1 (configuration not stated)
14 | 1800 nM | CCCCC(=O)N1CCN(C2c3ccc(Cl)cc3CCc3cc(Br)ccc32)CC1C(=O)NCc1ccc[n+]([O-])c1 (configuration not stated)
15 | 150 nM | Cn1cncc1C(O)(c1ccc(Cl)cc1)c1ccc2c(c1)n(Cc1cccc(Cl)c1)c(=O)n2C (configuration not stated)
16 | 0.49 nM | N#Cc1ccc(Cn2cncc2COCc2ccc(C#N)cc2-c2cccc(OC(F)(F)F)c2)cc1
17 | 1000 nM | Cn1c(=O)cc(-c2cccc(Cl)c2)c2cc(Cn3cncc3Cn3ccc(C(=O)N4CCOCC4)c3)ccc21
18 | 0.19 nM | COCc1cccc(-c2cc(C#N)ccc2COC(c2ccc(C#N)cc2)c2cncn2C)c1 (configuration not stated)
19 | 0.32 nM | N#Cc1ccc(OCc2cn(Cc3ccc(C#N)c(-c4ccc5ccccc5c4)c3)cn2)cc1
20 | 0.73 nM | CCOc1cccc(-c2cc(C#N)ccc2C#CC(O)(c2ccc(C#N)cc2)c2cncn2C)c1 (configuration not stated)
21 | 490 nM | O=C(Nc1nncs1)C1CN(C2c3ccc(Cl)cc3CCc3cc(Br)cnc32)CCN1C(=O)NC1CCCCC1 (configuration not stated)
22 | 1.4 nM | Cn1cncc1C(O)(c1ccc(C#N)cc1)c1ccc2c(c1)n(-c1cccc(Cl)c1)c(=O)n2C (configuration not stated)

Reference: ChEMBL document CHEMBL1140607, “Pharmacophore mapping of diverse classes of farnesyltransferase inhibitors” (Bioorg Med Chem Lett, 2007)
